Assay results reported in US11649212B2, “Inhibitors of indoleamine 2,3-dioxygenase and methods of their use” (BRISTOL-MYERS SQUIBB COMPANY, priority 2017, dated 2023).

Key:
human IDO1 = target: T1, human IDO1 (Homo sapiens, UniProt P14902); test: IDO inhibition assay in human IDO1/HEK293 cells; type: cell-based; conditions: HEK293 cells stably expressing human IDO1, 20 hours incubation, absorbance at 490 nm; read-out: IDO1 HEK Human IC50
T1 construct: expressed in transfected cells
Experimental: HEK293 cells were transfected with a pCDNA-based mammalian expression vector harboring human IDO1 cDNA (NM 002164.2) by electroporation. They were cultured in medium (DMEM with 10% FBS) containing 1 mg/ml G418 for two weeks. Clones of HEK293 cells that stably expressed human IDO1 protein were selected and expanded for IDO inhibition assay.
The human IDO1/HEK293 cells were seeded at 10,000 cells per 50 μL per well with RPMI/phenol red free media contains 10% FBS in a 384-well black wall clear bottom tissue culture plate (Matrix Technologies LLC) 100 nL of certain concentration of compound was then added to each well using ECHO liquid handling systems. The cells were incubated for 20 hours in 37° C. incubator with 5% CO2.
The compound treatments were stopped by adding trichloroacetic acid (Sigma-Aldrich) to a final concentration at 0.2%. The cell plate was further incubated at 50° C. for 30 minute. The equal volume supernatant (20 μL) and 0.2% (w/v) Ehrlich reagent (4-dimethylaminobenzaldehyde, Sigma-Aldrich) in glacial acetic acid were mixed in a new clear bottom 384-well plate. This plate was then incubated at room temperature for 30 minute. The absorbance at 490 nm was measured on Envision plate reader.
Compound IC50 values were calculated using the counts of 500 nM of a reference standard treatment as one hundred percent inhibition, and counts of no compound but DMSO treatment as zero percent inhibition.

[1] = target: T2, Indoleamine 2,3-Dioxygenase (IDO) (Homo sapiens, UniProt P14902); test: HeLa cell-based indoleamine 2,3-dioxygenase (IDO) assay (kynurenine production); conditions: HeLa cells, IFNγ 25 ng/mL, 48 hour incubation, kynurenine absorbance at 480 nm
T2 construct: endogenous in cells; host or cells: HeLa (ATCC CCL-2), stimulated with IFNγ 25 ng/mL
Experimental: Assessment of Inhibitor Activity in HeLa Cell-Based Indoleamine 2,3-Dioxygenase (IDO) Assay:
HeLa (ATCC® CCL-2) cells were obtained from the ATCC® and cultured in Dulbecco's Modified Eagle Medium supplemented with 4.5 g/L glucose, […] (#10-013-CV, Corning), 2 mM L-alanyl-L-glutamine dipeptide (#35050-061, Gibco), 100U/mL penicillin, 100 μg/mL streptomycin (#SV30010, HyClone) and 10% fetal bovine serum (#SH30071.03 HyClone). Cells were maintained in a humidified incubator at 37° C. in 5% CO2.
IDO activity was assessed as a function of kynurenine production as follows: HeLa cells were seeded in a 96-well culture plate at a density of 5,000 cells/well and allowed to equilibrate overnight. After 24 hours, the media was aspirated and replaced with media containing IFNγ (#285-IF/CF, R&D Systems) at a final concentration of 25 ng/mL. A serial dilution of each test compound was added to the cells in a total volume of 200 μL of culture medium. After a further 48 hour incubation, 170 μL of supernatant was transferred from each well to a fresh 96-well plate. 12.1 μL of 6.1N trichloroacetic acid (#T0699, Sigma-Aldrich) was added to each well and mixed, followed by incubation at 65° C. for 20 minutes to hydrolyze N-formylkynurenine, the product of indoleamine 2,3-dioxygenase, to kynurenine. The reaction mixture was then centrifuged for 10 mins at 500×g to sediment the precipitate. 100 μL of the supernatant was transferred from each well to a fresh 96-well plate. 100 μl of 2% (w/v) p-dimethylaminobenzaldehyde (#15647-7, Sigma-Aldrich) in acetic acid (#A6283, Sigma-Aldrich) was added to each well mixed and incubated at room temperature for 20 mins. Kynurenine concentrations were determined by measuring absorbance at 480 nm and calibrating against an L-kynurenine (#K8625, Sigma-Aldrich) standard curve using a SPECTRAMAX® M2e microplate reader (Molecular Devices). The percentage activity at each inhibitor concentration was determined and IC50 values assessed using nonlinear regression.

T2 sequence (P14902 whole entry): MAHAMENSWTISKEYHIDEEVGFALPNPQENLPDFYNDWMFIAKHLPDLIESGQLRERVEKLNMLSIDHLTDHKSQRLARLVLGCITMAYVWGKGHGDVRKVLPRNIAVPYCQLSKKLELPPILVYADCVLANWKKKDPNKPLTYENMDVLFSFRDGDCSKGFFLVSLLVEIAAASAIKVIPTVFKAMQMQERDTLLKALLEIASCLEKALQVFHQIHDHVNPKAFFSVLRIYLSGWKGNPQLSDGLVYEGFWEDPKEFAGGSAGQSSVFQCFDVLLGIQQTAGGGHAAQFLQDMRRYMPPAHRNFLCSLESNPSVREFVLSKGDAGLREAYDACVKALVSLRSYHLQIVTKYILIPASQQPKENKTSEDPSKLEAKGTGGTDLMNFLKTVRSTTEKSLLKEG
T1 sequence (P14902 whole entry): as above

SMILES | IC50 (human IDO1) [nM] | IC50 [1] [nM]
CCCC(C(=O)NC12CC3CC(CC(C3)C1)C2)N1CCN(c2ccnc3ccc(F)cc23)CC1 (single isomer, unassigned) [Example 19] | 1800 | –
CCCC(C(=O)NC12CC3CC(CC(C3)C1)C2)N1CCN(c2ccnc3ccc(F)cc23)CC1 (single isomer, unassigned) [Example 20] | 1900 | –
C[C@@H](NC(=O)N1CCN(c2ccccc2)CC1)[C@H]1CC[C@@H](c2ccnc3ccc(F)cc32)CC1 [Example 4, N—((R)-1-((1s,4 S)-4-(6-Fluoroquinolin-4-yl)cyclohexyl)ethyl)-4-phenylpiperazine-1-carboxamide] | – | 18
C[C@@H](NC(=O)C1CCCCC1)[C@H]1CC[C@@H](c2ccnc3ccc(F)cc32)CC1 [Example 5, N-((R)-1-((1s,4S)-4-(6-fluoroquinolin-4-yl)cyclohexyl)ethyl)cyclohexanecarboxamide] | – | 11
C[C@@H](NC(=O)C1CC1)[C@H]1CC[C@@H](c2ccnc3ccc(F)cc32)CC1 [Example 6, N-((R)-1-((1s,4S)-4-(6-fluoroquinolin-4-yl)cyclohexyl)ethyl)cyclopropanecarboxamide] | 810 | –
C[C@@H](NC(=O)C1CC(F)(F)C1)[C@H]1CC[C@@H](c2ccnc3ccc(F)cc32)CC1 [Example 7, 3,3-difluoro-N-((R)-1-((1s,4S)-4-(6-fluoroquinolin-4-yl)cyclohexyl)ethyl)cyclobutanecarboxamide] | – | 550
C[C@@H](NC(=O)[C@H]1C[C@@H](F)C1)[C@H]1CC[C@@H](c2ccnc3ccc(F)cc32)CC1 [Example 9, (1s,3S)-3-fluoro-N-((R)-1-((1s,4S)-4-(6-fluoroquinolin-4-yl)cyclohexyl)ethyl)cyclobutanecarboxamide] | 620 | –
C[C@@H](NC(=O)C1CCC1)[C@H]1CC[C@@H](c2ccnc3ccc(F)cc32)CC1 [Example 10, N-((R)-1-((1s,4S)-4-(6-fluoroquinolin-4-yl)cyclohexyl)ethyl) cyclobutanecarboxamide] | 190 | –
C[C@H](NC(=O)C1CCC(O)CC1)C1CCC(c2ccnc3ccc(F)cc23)CC1 (stereo partly drawn) [Example 11, (1s,4S)-N-((R)-1-((1s,4S)-4-(6-fluoroquinolin-4-yl)cyclohexyl)ethyl)-4-hydroxycyclohexane carboxamide] | 750 | –
COc1ccc(CN(C(=O)NC2CCCC2)[C@H]2CC[C@H](c3ccccc3)CC2)cc1 [Example 14, 3-cyclopentyl-1-(4-methoxybenzyl)-1-((1r,4r)-4-phenylcyclohexyl)-urea] | 120 | –
CC1(CC(=O)N[C@@]23C[C@@H]4C[C@@H](C[C@@](O)(C4)C2)C3)CCN(c2ccnc3ccc(F)cc23)CC1 [Example 17, 2-(1-(6-Fluoroquinolin-4-yl)-4-methylpiperidin-4-yl)-N-((1r,3s,5R,7S)-3-hydroxyadamantan-1-yl)acetamide] | 390 | –
CC1(CC(=O)NC23CC4CC(CC(C4)C2)C3)CCN(c2ccnc(C(F)(F)F)c2)CC1 [Example 18, N-((3 s,5 s, 7 s)-Adamantan-1-yl)-2-(4-methyl-1-(2-(trifluoromethyl)pyridin-4-yl)piperidin-4-yl)acetamide] | 180 | –

Other lines, results leading:

IC50 (human IDO1) [nM] | IC50 [1] [nM] | SMILES
– | 20 | CCC(C(=O)NC1[C@H]2C[C@@H]3C[C@@H](C[C@H]1C3)C2)C1CCN(Cc2cccc(C(F)(F)F)n2)CC1 (single isomer, unassigned) [Example 21, N-(Adamantan-2-yl)-2-(1-((6-(trifluoromethyl)pyridin-2-yl)methyl)piperidin-4-yl)butanamide]
– | 1000 | CCC(C(=O)NC1[C@H]2C[C@@H]3C[C@@H](C[C@H]1C3)C2)C1CCN(Cc2cccc(C(F)(F)F)n2)CC1 (single isomer, unassigned) [Example 22, N-(Adamantan-2-yl)-2-(1-((6-(trifluoromethyl)pyridin-2-yl)methyl)piperidin-4-yl)butanamide]
– | 24 | C[C@@H](NC(=O)C12CCC(Cl)(CC1)CC2)[C@H]1CC[C@@H](c2ccnc3ccc(F)cc32)CC1 [Example 1, 4-chloro-N—((R)-1-((cis)-4-(6-fluoroquinolin-4-yl)cyclohexyl)ethyl)bicyclo [2.2.2]octane-1-carboxamide]
– | 22 | C[C@@H](NC(=O)C1CCN(c2ccc(F)cc2)CC1)[C@H]1CC[C@@H](c2ccnc3ccc(F)cc32)CC1 [Example 2, 1-(4-Fluorophenyl)-N—((R)-1-((1s,4S)-4-(6-fluoroquinolin-4-yl)cyclohexyl)ethyl) piperidine-4-carboxamide]
800 | – | COc1ccc(N2CCC(C(=O)N[C@H](C)[C@H]3CC[C@@H](c4ccnc5ccc(F)cc54)CC3)CC2)cc1 [Example 3, N—((R)-1-((1s,4S)-4-(6-Fluoroquinolin-4-yl)cyclohexyl)ethyl)-1-(4-methoxyphenyl)piperidine-4-carboxamide]
570 | – | C[C@@H](NC(=O)C1CC(F)C1)C1CCC(c2ccnc3ccc(F)cc23)CC1 (stereo partly drawn) [Example 8, (1r,3R)-3-fluoro-N-((R)-1-((1s,4S)-4-(6-fluoroquinolin-4-yl)cyclohexyl)ethyl)cyclobutanecarboxamide]
170 | – | C[C@@H](NC(=O)[C@H]1CC[C@H](O)CC1)[C@H]1CC[C@@H](c2ccnc3ccc(F)cc32)CC1 [Example 12, (1r,4R)-N-((R)-1-((1s,4S)-4-(6-fluoroquinolin-4-yl)cyclohexyl)ethyl)-4-hydroxycyclohexane carboxamide]
– | 66 | COc1ccc(CN(C(=O)NC2CCCCC2)[C@H]2CC[C@H](c3ccccc3)CC2)cc1 [Example 13, 3-cyclohexyl-1-(4-methoxybenzyl)-1-((1r,4r)-4-phenylcyclohexyl)urea]
240 | – | COc1ccc(CN(C(=O)NC2CC2)[C@H]2CC[C@H](c3ccccc3)CC2)cc1 [Example 15, 3-cyclopropyl-1-(4-methoxybenzyl)-1-((1r,4r)-4-phenylcyclohexyl)-urea]
– | 31 | CC1(CC(=O)NC23CC4CC(CC(C4)C2)C3)CCN(c2ccnc3ccc(F)cc23)CC1 [Example 16, N-((3s,5s,7s)-Adamantan-1-yl)-2-(1-(6-fluoroquinolin-4-yl)-4-methylpiperidin-4-yl)acetamide]
– | 14 | C[C@@H](C(=O)NC12CC3CC(C)(CC(C)(C3)C1)C2)[C@H]1CC[C@@H](c2ccnc3ccc(F)cc32)CC1 [Example 23, (cis)-(2R)—N-(3,5-dimethyladamantan-1-yl)-2-(4-(6-fluoroquinolin-4-yl)cyclohexyl)propanamide]
